The text below walks through data of patent publication US7994334B2, “Fungicide pyridinyloxy substituted phenylamidine derivatives” (Bayer Cropscience AG, priority 2005, dated 2011).

Structures are written as SMILES.

A short description of this series: logP by HPLC on reversed-phase column (C 18), EEC Directive 79/831 Annex V.A8. The format is physicochemical. Conditions: for logPa: C 18, 40° C., 0.1% aqueous formic acid and acetonitrile. On the procedure: Temperature: 40° C.; Mobile phases: 0.1% aqueous formic acid and acetonitrile; linear gradient from 10% acetonitrile to 90% acetonitrile.

Consider `CCN(C)C=Nc1cc(C)c(Oc2cc(C#N)ccn2)cc1C` [Example 31], for which the logPa was 1.42.

In the case of `CCN(C)C=Nc1cc(C)c(Oc2cncc(Cl)c2)cc1C` [Example 67], the logPa came out at 1.82.

Take `CCN(C)C=Nc1cc(C)c(Oc2cc(C(F)(F)F)cc(Cl)n2)cc1C` [Example 1, N-Ethyl-N-methyl-N′-[4-(2-chlor-4-trifluormethylpyridyl-6-oxy)-2,5-xylyl]form-amidine]: the “log P (pH 2.3)” value (pH 2.3, C 18) is 2.39.

On to `Cc1cc(Oc2ncc(C(F)(F)F)cc2Cl)c(C)cc1N=CN(C)C(C)C` [Example 43], for which the logPa was determined as 2.29.
